Experimental data as given in article PMC6125430, “Structural Analysis of Redox-sensing Transcriptional Repressor Rex from Thermotoga maritima” (Scientific Reports, 2018).

Key:
TmRex = target: T1, TmRex (Thermotoga maritima, UniProt Q9WY16); assay: X-ray crystallography of the complex; type: binding; details: 1:1 per C-terminal domain
T1 construct: gene rex1; full-length gene (pET28b NdeI/XhoI), N-terminal His6 tag (tag removal told only for SeMet protein), E. coli BL21(DE3) Star pLysS; homodimer; primers encode N-terminal MAEKIPK

[1] = target: the molecule itself; assay: crystal structure; apo TmRex, native protein, 2.0 Å; sitting-drop vapour diffusion at 296 K, 200 mM potassium chloride, 20% (w/v) PEG 3,350; four subunits (two homodimers) in the asymmetric unit

Molecule: NC(=O)C1=CN([C@@H]2O[C@H](COP(=O)(O)OP(=O)(O)OC[C@H]3O[C@@H](n4cnc5c(N)ncnc54)[C@H](O)[C@@H]3O)[C@@H](O)[C@H]2O)C=CC1 [NADH]
- X-ray crystallography of the complex (TmRex; co-crystallization with 1 mM NADH, 2.45 A, closed form): NADH-bound TmRex crystals were grown by co-crystallization

Molecule: NC(=O)c1ccc[n+]([C@@H]2O[C@H](COP(=O)(O)OP(=O)(O)OC[C@H]3O[C@@H](n4cnc5c(N)ncnc54)[C@H](O)[C@@H]3O)[C@@H](O)[C@H]2O)c1 [NAD^+]
- X-ray crystallography of the complex (TmRex; apo crystals soaked with 1 mM NAD+ for 10 h, 2.2 A, open form): The structure of NAD^+-bound TmRex was refined with crystallographic Rwork and Rfree values

B1: Redox-sensing transcriptional repressor Rex from Thermotoga maritima (natural protein, UniProt Q9WY16 1-208, looked up)
chain: MAEKIPKPVSKRLVSYYMCLERLLDEGVEVVSSEELARRLDLKASQIRKDLSYFGEFGKRGVGYNVEHLYDAIGEILGVKKEWKLVVVGAGNIGRAVANYTVMKEKGFRIIGIFDSDPSKIGKEAAPGLTVSDVSELEKFVEEHGVEIGVIAVPAEHAQEIAERLEKAGIKGILNFAPVKIKVSVPVENIDITASLRVLTFEIVRRNS
notes: Rex (TM0169) of Thermotoga maritima, rex gene amplified from genomic DNA with primers from the ATG start codon to the stop codon; residues 1-208 (N-terminal domain 1-77, linker loop 78-83, C-terminal domain 84-208); Cloned into pET28b(+) with NdeI and XhoI; for the native protein in the deposited structures no removal is told; also called TmRex; TM0169; source: E. coli BL21 (DE3) star pLysS, …
- binding result [1]: binds
